Experimental data taken from patent US12214076B2, “Drug delivery vehicles for atherosclerosis nanomedicine” (Northwestern University, priority 2019, dated 2025).

Columns and labels:
[1] = TEM characterization of PA nanofibers for diameter and length (Example 3); assay type: physicochemical; conditions: 30 measurements from three images
Protocol: Samples at 1 mM in PBS were prepared for TEM by plating on copper supports covered with thin carbon foil 400-mesh that were treated with glow discharge. […] Due to the overlapping fibers, automated tools including FiberApp could not be used to analyze the nanofibers. Instead, the TEM images were analyzed manually for nanofiber diameter and length using ImageJ software. Cryogenic TEM of samples was also performed using a JEOL 1230 at 100 kV accelerating voltage and Gatan 831 CCD camera. […] Samples were prepared at 1 mM in PBS blotted once for 3 seconds before plunging into liquid ethane using a Vitrobot Mark III (FEI) vitrification robot.

[2] = system: J774.2 murine macrophages; assay: Nitric oxide production of stimulated macrophages; assay type: cell-based, mouse; conditions: 24 hours, LPS and stimulated, 32 μM Ac2-26 or epitope equivalent
Protocol: Macrophage culture and characterization: J774.2 murine macrophages (Sigma-Aldrich) were expanded at 4-9×10^5 cells/mL in growth media consisting of Dulbecco's Modified Eagle's Medium (Sigma-Aldrich) containing 4.5 g/L glucose, 2 mM L-glutamine, 10% v/v FBS, 100 U/m penicillin, and 100 μg/mL streptomycin. Cells were passaged using Accutase™ (StemCell Technologies) and used at passage 6-9 for all experiments. The cells were detached with Accutase™ and gentle scraping, counted, and re-suspended in flow cytometry buffer containing 2% w/v bovine serum albumin (BSA, heat shock fraction free of proteases, globulin, and fatty acids, Sigma-Aldrich) and 0.1% w/v sodium azide (Sigma-Aldrich). To minimize non-specific binding of immunoglobin to Fc receptors, macrophages were incubated with anti-mouse CD16/32 antibody (TrueStain FcX™, Biolegend) at 1 μg/1×10^5 cells for 10 minutes at 4° C. APC anti-mouse CD11b antibody or APC Armenian hamster IgG isotype control antibody (Biolegend) were added at 0.4 μg/1×10^5 cells, FPR2 antibody (Novus Biologics) was added at […], and all samples were incubated for 30 minutes at 4° C. The cells were washed once with flow cytometry buffer by centrifugation at 300×g. FPR2 samples were further treated with goat anti-rabbit Alexa Fluor 488 secondary antibody (Invitrogen) at 2 μg/1×10^5 cells for 20 minutes at 4° C., followed by a wash step. Unstained macrophages served as controls and contained 7AAD viability staining solution (Biolegend) at 0.1 μg/1×10^5. All samples were suspended in 4% paraformaldehyde (Electron Microscopy Sciences) in PBS until analysis. […] All samples were analyzed using Attune NxT Acoustic Focusing Cytometer (Thermo Fisher) with at least 2000 events counted per condition.
Therapeutic effects of ApoA1-Ac2-26 PAs: 10% ROS- and MMP-Ac2-26 PAs, as well as Ac2-26 peptide were added together with 10 μg/mL LPS at 32 μM Ac2-26 to macrophages. […] Concerning the quantification of NO, the reducing solution made of KI in acetic acid and water provides an excess of I− that reacts with nitrite yielding ·NO. […]

[3] = Small angle x-ray scattering (SAXS) of PA nanofibers; assay type: physicochemical; conditions: 5 mM in PBS
Protocol: Small angle x-ray scattering (SAXS): SAXS characterization of the PA nanofibers was performed at the Advanced Photon Source in the Argonne National Laboratory on beamline 5-ID-D, DuPont-Northwestern-Dow Collaborative Access Team Synchrotron Research Center. Samples were prepared at 5 mM in PBS solution, aged at least 24 hours at 4° C., and analyzed in 1.5 mm quartz capillaries (Charles Supper) at 17 keV with a charged couple device photon detector located 245 cm behind the sample. Scattering intensities were collected using wave vector q range of 0.0024 to 0.40 Å^−1. q represents the scattering vector and is calculated as q=4π sin (θ)/λ, with θ as the scattering angle between the incident beam and detector and […] the X-ray wavelength. The plots of scattering intensity versus q were obtained using NIST software Igor Pro v8. The scattering intensities of PBS were subtracted from the PA samples using the Irena SAS macro, and the resulting plots were fitted using NCNR Analysis macro to a polydisperse core shell cylinder model.

Diameter (nm) Average [1]: 12.3 nm | Diameter (nm) Median [1]: 12.4 nm | Length (nm) Average [1]: 3024.4 nm | Length (nm) Median [1]: 2541.4 nm | Diameter (nm) Average ([1]; listed as diluent): 12.3±3.1 nm | Length (nm) Median ([1]; listed as diluent): 2541 nm | SAXS slope of Guinier regime in the low q region [3]: −1
Substance: C16-V2A2 (SEQ ID NO: 8)-E2-NH2 [Diluent PA]
macrophage activation, nitric oxide production relative to the stimulated control [2]: did not cause significant decreases in nitric oxide production
